These results are taken from patent publication US7776572B2, “Method for reducing loss of enzyme activity during storage” (Corning Incorporated, priority 1996, dated 2010).

In experiment [1] the test system is IgG protein. Kind of experiment: In-mold coating of 24-well polystyrene plates, protein binding by colloidal gold staining. The method, then:
The in-mold coating aspects of the invention were tested by molding 24-well polystyrene plates. […] The 0.01% concentration was estimated to produce less than one monolayer of surfactant on the finished product, while the 0.1% concentration produced about 7 monolayers. The surfactant was applied to the mold using a Crown sprayer (Crown Industrial Products, Hebron, Ill.; Catalog #8011), which produces a sufficiently fine spray of droplets to uniformly coat the mold. The mold was sprayed before each part was made.

Experiment [2] relates to BSA protein. The experiment can be described thus: Coating stability in the presence of excess protein, colloidal gold. On the procedure:
The following procedures were employed in this example. 24-well polystyrene plates were coated as described in Materials and Methods using 25 μl aliquots of 0.10% (w/v) sorbitol mono-oleate in isopropanol. Coverage of the sorbitol mono-oleate was calculated at 10 μg/cm^2. Each well of the plates was exposed to 1.0 ml of BSA protein (Pierce) at 2 mg/ml in PBS buffer (pH=7.4). The plates were incubated on a rocker table for 30 minutes at room temperature, the wells were emptied, and the protein exposure was repeated a total of six times. The plates were then rinsed 3 times with dI H2O and stained with the colloidal gold stain overnight. Plates were then rinsed with dI H2O, dried, and the absorbance of each well was measured at 550 nm on the Cambridge Technologies plate reader.

For experiment [3], the system named is IgG (Horse Standard, Pierce). The experiment can be described thus: Coating durability using protein solution washes on four polymers, colloidal Au. The following applies: after six IgG solution exposures. On the procedure: The procedures used were as follows. Injection molded assay plates (96-well format) were made from polystyrene, (STYRON Dow 685D), polypropylene (Exxon 9374), polymethyl methacrylate (ATO HAAS), and KYNAR FLEX 2800 PVDF copolymer (ATO HAAS). Each well was aliquoted 0.10 ml of IgG (Horse Standard, Pierce) at 10 μg/ml in 0.01 M PBS buffer (pH=7.4) and placed on a rocker table for 30 minutes at 23° C. The protein solution was then emptied from the wells and a fresh protein solution was aliquoted to each well and the entire procedure repeated a total of six times. The plates were then rinsed three times with dI H2O (0.3 ml/well). Colloidal Au stain was added to each well (0.3 ml/well) and the plates were placed on a rocker table overnight. Plates were then rinsed 3 times with dI H2O, allowed to dry, and absorbance at 550 nm was measured using the Cambridge Technologies Plate Reader.

Take SORBITOL MONO-OLEATE: the “protein binding of in-mold coated part” value was “found to work successfully” in experiment [1] (concentrations above 0.1%, ranging up to 2%); “pooling and missed areas were seen which bound protein” in experiment [1] (mold sprayed with 0.01% (w/v) solution in isopropanol); “essentially no protein binding” in experiment [1] (mold sprayed with 0.1% (w/v) solution in isopropanol). Besides, the “Absorbance at 550 nm” value in experiment [2] (1 exposure to BSA 2 mg/ml, 30 min total, coated polystyrene) is on record as 0.0; in experiment [2] (2 exposures, 60 min total) it was 0.0; in experiment [2] (3 exposures, 90 min total) it was 0.0; in experiment [2] (4 exposures, 120 min total) it was 0.0; in experiment [2] (5 exposures, 150 min total), 0.0; in experiment [2] (6 exposures, 180 min total), 0.0. Also, the “Absorbance (550 nm) Polypropylene” value in experiment [3] is 0.00. For the same sequence, the “Absorbance (550 nm) Polystyrene” value in experiment [3] was 0.00.
